Test results published in patent publication US8435582B2, “Beverage preservative system containing Pimaricin-Povidone complex” (PepsiCo, Inc., priority 2009, dated 2013).
≈ marks a conversion by molar mass, not a printed value. Like-named read-outs stand apart in the source and are kept apart here.

Tests used:
[1] = test system: Byssochlamys fulva ATCC 10099; assay: 16 week MIC of un-complexed Pimaricin in 2% juice beverage, mold spores; assay type: cell-based; conditions: Paecilomyces fulvus, ATCC10099; beverage pH 3.4, 25° C., 20 spores/ml, spores from Potato Dextrose 25 °C; read-out: 16 week incubation MIC
physchem = assay type: physicochemical
Source text: (§1) A 2% fruit juice based non-carbonated beverage of pH 3.4 and about 12 Brix was formed by combining the following ingredients.
(§2) The preparation of beverage was divided into two aliquots.

[2] = 25° C., pH approximately 6.4; cited from earlier work
[3] = test system: Zygosaccharomyces bailli ATCC 60484; assay: Growth inhibitory effect of Pimaricin, beverage medium containing 5% DMSO; assay type: cell-based; conditions: ATCC60484, 5% DMSO beverage pH 3.4, 25° C., PDA, read-out: Observed MIC (16 week)
Source text: as §1, §2
(§3) The second aliquot of beverage is identical to the first aliquot except for the presence of pimaricin. It also contains 5% DMSO. […] The tubes were sealed in a manner that prohibits moisture evaporation.
(§4) Yeast employed in the study are Zygosaccharomyces bisporus (ATCC 52407) Zygosaccharomyces bailii (ATCC 60484), Saccharomyces cerevisiae (Pepsi Isolate Y99), Brettanomyces (Pepsi Isolate Chemy 7UP), and Zygosaccharomyces (Pepsi Isolate Y2).
(§5) The mold spores employed were obtained from the following organisms Paecilomyces variotii (Pepsi isolate D16), Penicillium camembertii (Pepsi isolate M3), (Talaromyces flavus var. flavus (ATCC 10512), Byssochlamys nieva (ATCC 36614), and Byssochlamys fulva ATCC 10099). Each spore type was present initially at 20 spores per milliliter of product. Spores for a couple of strains of mold (such as Byssochlamys nieva) were developed at both 25° C. on Potato Dextrose and 30° C. on Malt Extract in order to ensure some variation in the ratio of asci (ascospores) to conidiospores.

[4] = test system: Zygosaccharomyces bailli Pepsi Isolate; assay: as above; assay type: cell-based; conditions: 5% DMSO beverage pH 3.4, 25° C., PDA, read-out: Observed MIC (16 week)
Source text: as §1, §2, §3, §4, §5

[5] = test system: Saccharomyces cerevisiae Pepsi Isolate; assay: as above; assay type: cell-based; conditions: 5% DMSO beverage pH 3.4, 25° C., PDA, read-out: Observed MIC (16 week)
Source text: as §1, §2, §3, §4, §5

[6] = test system: Brettanomyces Pepsi Isolate; assay: as above; assay type: cell-based; conditions: 2688 h, 5% DMSO beverage pH 3.4, 25° C., PDA, read-out: Observed MIC (16 week)
Source text: as §1, §2, §3, §4, §5

[7] = test system: Zygosaccharomyces bisporus ATCC 52407; assay: as above; assay type: cell-based; conditions: ATCC52407, 5% DMSO beverage pH 3.4, 25° C., PDA, read-out: Observed MIC (16 week)
Source text: as §1, §2, §3, §4, §5

[8] = test system: Penicillium camembertii Pepsi Isolate; assay: as above; assay type: cell-based; conditions: pH 3.4, 5% DMSO beverage pH 3.4, 25° C., read-out: Observed MIC (16 week)
Source text: as §1, §2, §3, §4, §5

[9] = test system: Talaromyces flavus var flavus ATCC 10512; assay: as above; assay type: cell-based; conditions: spores generated on PDA at 25 °C
Source text: as §1, §2, §3, §4, §5

[10] = test system: Byssochlamys nieva ATCC 36614; assay: as above; assay type: cell-based; conditions: 2688 h; 5% DMSO beverage pH 3.4, 25° C.; spores generated on PDA at 25 °C; read-out: Observed MIC (16 week)
Source text: as §1, §2, §3, §4, §5

[11] = test system: Byssochlamys fulva ATCC 10099; assay: as above; assay type: cell-based; conditions: Paecilomyces fulvus, ATCC10099, pH 3.4, 5% DMSO beverage pH 3.4, 25° C., read-out: Observed MIC (16 week)
Source text: as §1, §2, §3, §4, §5

[12] = test system: Paecilomyces variotii Pepsi Isolate; assay: as above; assay type: cell-based; conditions: pH 3.4, 5% DMSO beverage pH 3.4, 25° C., read-out: Observed MIC (16 week)
Source text: as §1, §2, §3, §4, §5

[13] = test system: Talaromyces spectabilis ATCC 90900; assay: 16 week MIC of un-complexed Pimaricin in 2% juice beverage, mold spores; assay type: cell-based; conditions: Paecilomyces variotii, ATCC90900; beverage pH 3.4, 25° C., 20 spores/ml, spores from Potato Dextrose 25 °C; read-out: 16 week incubation MIC
Source text: as §1, §2
(§6) The tubes were sealed in a manner that prohibits moisture evaporation.
(§7) The mold spores employed were obtained from the following organisms. Aspergillus niger isolate of Pepsi; ATCC strain 90900 (Talaromyces spectabilis), ATCC strain 48441 (Pencillium galbrum), ATCC 24088 (Byssochlamys fulva), ATCC 96468 (Neosartorya fischeri) ATCC strain 96463 (Talaromyces flavus) and ATCC strain ATCC 10512 (Talaromyces flavus var. flavus). Each spore type was present at 20 spores per milliliter.

[14] = test system: Neosartorya fischeri ATCC 96468; assay: as above; assay type: cell-based; conditions: Aspergillus fischeri, ATCC96468; beverage pH 3.4, 25° C., 20 spores/ml, spores from Potato Dextrose 25 °C; read-out: 16 week incubation MIC
Source text: as §1, §2, §6, §7

[15] = test system: Aspergillus niger isolate of Pepsi; assay: as above; assay type: cell-based; conditions: beverage pH 3.4, 25° C., 20 spores/ml, spores from Potato Dextrose 25 °C, read-out: 16 week incubation MIC
Source text: as §1, §2, §6, §7

[16] = test system: Talaromyces flavus var flavus ATCC 10512; assay: as above; assay type: cell-based; conditions: ATCC10512, beverage pH 3.4, 25° C., 20 spores/ml, spores from Potato Dextrose 25 °C, read-out: 16 week incubation MIC
Source text: as §1, §2, §6, §7

[17] = test system: Penicillium glabrum ATCC 48441; assay: as above; assay type: cell-based; conditions: ATCC48441, beverage pH 3.4, 25° C., 20 spores/ml, spores from Potato Dextrose 25 °C, read-out: 16 week incubation MIC
Source text: as §1, §2, §6, §7

[18] = test system: Tataromyces flavus ATCC 96463; assay: as above; assay type: cell-based; conditions: Talaromyces flavus, ATCC96463; beverage pH 3.4, 25° C., 20 spores/ml, spores from Potato Dextrose 25 °C; read-out: 16 week incubation MIC
Source text: as §1, §2, §6, §7

mold fungi = assay: Preservation of beverage product for 16 weeks, Pimaricin stand alone; assay type: cell-based; conditions: Pimaricin as the only antimicrobial substance (stand alone)
[19] = spores generated on MEA at 30 °C
[20] = spores generated on PDA at 25 °C

C[C@@H]1C/C=C/C=C/C=C/C=C/[C@H](O[C@@H]2O[C@H](C)[C@@H](O)[C@H](N)[C@@H]2O)C[C@@H]2O[C@](O)(C[C@@H](O)C[C@H]3O[C@@H]3/C=C/C(=O)O1)C[C@H](O)[C@H]2C(=O)O [Pimaricin]
MIC [1]: 16.9 µg/mL | solubility (physchem; 4 °C, pH 3.4, aqueous buffer, thermodynamic from solid, solubility limit in high acid beverage): 10 µg/mL (≈ 15 µM) | solubility at 24 h (physchem; 25 °C, pH 3.4, aqueous buffer, thermodynamic from solid, solubility limit in high acid beverage): 20 µg/mL (≈ 30 µM) | solubility limit in high acid beverage (physchem; 24 h, pH 3.4): about 20 mg/L | solubility in pure water [2]: 52 µg/mL (≈ 78.1 µM) | MIC [3]: 2.5 µg/mL (≈ 3.76 µM) | MIC [4]: 2.5 µg/mL (≈ 3.76 µM) | MIC [5]: 2.5 µg/mL (≈ 3.76 µM) | MIC [6]: 2.5 µg/mL (≈ 3.76 µM) | MIC [7]: 2.5 µg/mL (≈ 3.76 µM) | MIC [8, 19]: 65 µg/mL (≈ 97.6 µM) | MIC [8, 20]: 6.4 µg/mL (≈ 9.61 µM) | Observed MIC (16 week) ([9]; 5% DMSO beverage pH 3.4, 25° C.): >72 ppm | MIC ([9]; Talaromyces flavus, ATCC10512, pH 3.4, 5% DMSO beverage pH 3.4, 25° C., read-out: Observed MIC (16 week)): 72 µg/mL (≈ 108 µM) | MIC [10]: 46 µg/mL (≈ 69.1 µM) | MIC [11, 19]: 7.9 µg/mL (≈ 11.9 µM) | MIC [11, 20]: 2 µg/mL (≈ 3 µM) | MIC [12, 19]: > 72 µg/mL | MIC [12, 20]: 58.3 µg/mL (≈ 87.6 µM) | MIC [13]: 10.3 µg/mL | MIC [14]: > 20 µg/mL | MIC [15]: 18.4 µg/mL | MIC [16]: > 20 µg/mL | MIC [17]: 5.7 µg/mL | MIC [18]: > 20 µg/mL | minimum initial concentration needed to preserve product for 16 weeks (mold fungi): 280 mg Pimaricin per liter
